Data taken from patent publication US20240415819A1, “MACROCYCLIC COMPOUNDS AS PROTEASOME SUBUNIT BETA TYPE-5 INHIBITORS” (Lead Discovery Center GmbH, priority 2021, published 2024).

Legend:
[1] = target: T1, β5 subunit of the human constitutive proteasome (CPS) (Homo sapiens, UniProt P28074); test: β5 inhibition assay, human constitutive proteasome (Suc-LLVY-AMC); type: biochemical; details: IC50 class, Suc-LLVY-AMC substrate
T1 construct: purchased Boston Biochem E-360
Protocol: The enzymatic activity of the β5 subunit of the human constitutive proteasome (CPS) is analyzed. In another assay, which differs from the assay of the human constitutive proteasome only in using the human immunoproteasome (IPS) the enzymatic activity of the β5 subunit of the human immunoproteasome (IPS) is analyzed. […] Inhibition is indicated as IC50 [nM] (“-”=not measured).

[2] = target: T2, β5 subunit of the human immunoproteasome (IPS) (Homo sapiens, UniProt P28062); test: β5 inhibition assay, human immunoproteasome (Suc-LLVY-AMC); type: biochemical; details: IC50 class, Suc-LLVY-AMC substrate
T2 construct: purchased Boston Biochem E-370
Outline: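 β5 activity is read as liberated AMC fluorescence (355/460 nm) after 4 h dark reaction at RT with 22.6 μM Suc-LLVY-AMC, stopped by 1 μM bortezomib. Beforehand, 1 nM human IPS and compound sat 10 min at RT in HEPES pH 7.5 buffer containing NaCl, 0.02% SDS and DTT.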

[3] = system: A549 (human lung carcinoma cell line); test: Glo assay of A549 cells (Table 3; ProteasomeGlo plating scheme); type: cell-based; details: Homo sapiens; A549 cells; read-out: PGLo A549
Outline: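 Luminescent read-out of cellular chymotrypsin-like proteasome activity: cells exposed to compound 105 min at 37° C., 5% CO2, then given Suc-LLVY-Glo reagent, shaken 2-5 min and kept dark 10-15 min before reading. Values are IC50 [nM].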

[4] = system: Hs 746T (human gastric carcinoma cell line); test: 48 hr CTG viability assay, Hs 746T; type: cell-based; details: Hs746T, 48 hr CTG, read-out: Hs 746T IC50
Outline: (§1)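 Growth inhibition by compound over 48 h; IC50 (nM) derived from duplicate CellTiter-Glo luminescence readings across 0.0015–10 uM.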

[5] = system: MM1 S (B lymphoblast cell line); test: 48 hr CTG viability assay, MM1S; type: cell-based; details: Homo sapiens, 48 hr CTG, read-out: MM1S IC50
Outline: as §1

[6] = system: RPMI 8226 (B lymphocyte cell line, multiple myeloma); test: 48 hr CTG viability assay, RPMI 8226; type: cell-based; details: Homo sapiens, RPMI-8226; 48 hr CTG; read-out: RPMI-8226 IC50
Outline: as §1

| Compound | IC50 [1] | IC50 [2] | IC50 [3] | IC50 [4] | IC50 [5] | IC50 [6] |
| --- | --- | --- | --- | --- | --- | --- |
| COc1cccc(COCCC(=O)N[C@H]2CC(=O)N3CCCC(CCOc4ccc(C)c(c4)CNC(=O)[C@H](CCc4ccccc4)NC2=O)C3)c1 (stereo partly drawn) [Compound 585, 3-((3-methoxybenzyl)oxy)-N-((9S,12S)-5^4-methyl-8,11,14-trioxo-9-phenethyl-4-oxa-7,10-diaza-1(3,1)-piperidina-5(1,3)-benzenacyclotetradecaphane-12-yl)propanamide] | < 0.1 µM | < 0.1 µM | < 0.1 µM | < 0.1 µM | < 0.1 µM | < 0.1 µM |
| Cc1ccc2cc1CNC(=O)[C@H](CCc1ccccc1)NC(=O)[C@@H](NC(=O)CCN1CCC3(CCCC3)C1)CC(=O)N1CCCC(CCO2)C1 (stereo partly drawn) [Compound 652, N-((9S,12S)-5^4-methyl-8,11,14-trioxo-9-phenethyl-4-oxa-7,10-diaza-1(3,1)-piperidina-5(1,3)-benzenacyclotetradecaphane-12-yl)-3-(2-azaspiro[4.4]nonan-2-yl)propanamide] | < 0.1 µM | < 0.1 µM | < 0.1 µM | < 0.1 µM | < 0.1 µM | < 0.1 µM |
| Cc1ccc2cc1CNC(=O)[C@H](CCc1ccccc1)NC(=O)[C@@H](NC(=O)CCOCCCc1ccccc1)CC(=O)N1CCCC(CCO2)C1 (stereo partly drawn) [Compound 612, N-((9S,12S)-5^4-methyl-8,11,14-trioxo-9-phenethyl-4-oxa-7,10-diaza-1(3,1)-piperidina-5(1,3)-benzenacyclotetradecaphane-12-yl)-3-(3-phenylpropoxy)propanamide] | < 0.1 µM | < 0.1 µM | < 0.1 µM | < 0.1 µM | < 0.1 µM | < 0.1 µM |
| Cc1ccc2cc1CNC(=O)[C@H](CCc1ccccc1)NC(=O)[C@@H](NC(=O)CCN1CCC3(CC1)COC3)CC(=O)N1CCCC(CCO2)C1 (stereo partly drawn) [Compound 641, N-((9S,12S)-5^4-methyl-8,11,14-trioxo-9-phenethyl-4-oxa-7,10-diaza-1(3,1)-piperidina-5(1,3)-benzenacyclotetradecaphane-12-yl)-3-(2-oxa-7-azaspiro[3.5]nonan-7-yl)propanamide] | < 0.1 µM | < 0.1 µM | < 0.1 µM | < 0.1 µM | < 0.1 µM | < 0.1 µM |
| Cc1ccc2cc1CNC(=O)[C@H](CCc1ccccc1)NC(=O)[C@@H](NC(=O)C(C)(C)CO)CC(=O)NCCCO2 [Compound 736, 3-hydroxy-2,2-dimethyl-N-((9S,12S)-1^4_ methyl-7,10,13-trioxo-12-phenethyl-2-oxa-6,11,14-triaza-1(1,3)-benzenacyclopentadecaphane-9-yl)propanamide] | 1 to 5 µM | 1 to 5 µM | > 5 µM | > 5 µM | 1 to 5 µM | 1 to 5 µM |
| Cc1ccc2cc1CNC(=O)[C@H](CCc1ccccc1)NC(=O)[C@@H](NC(=O)CCOC1CC3(C1)CN(C)C3)CC(=O)N1CCCC(CCO2)C1 (stereo partly drawn) [Compound 710, 3-((2-methyl-2-azaspiro[3.3]heptan-6-yl)oxy)-N-((9S,12S)-5^4-methyl-8,11,14-trioxo-9-phenethyl-4-oxa-7,10-diaza-1(3,1)-piperidina-5(1,3)-benzenacyclotetradecaphane-12-yl)propanamide] | < 0.1 µM | < 0.1 µM | < 0.1 µM | < 0.1 µM | < 0.1 µM | < 0.1 µM |
| Cc1ccc2cc1CNC(=O)[C@H](CCc1ccccc1)NC(=O)[C@@H](NC(=O)N1CCNCC1)CC(=O)N1CCCC(CCO2)C1 (stereo partly drawn) [Compound 716, N-((9S,12S)-5^4-methyl-8,11,14-trioxo-9-phenethyl-4-oxa-7,10-diaza-1(3,1)-piperidina-5(1,3)-benzenacyclotetradecaphane-12-yl)piperazine-1-carboxamide] | < 0.1 µM | < 0.1 µM | < 0.1 µM | 0.1 to 0.5 µM | < 0.1 µM | < 0.1 µM |
| Cc1ccc2cc1CNC(=O)[C@H](CCc1ccccc1)NC(=O)[C@@H](NC(=O)CCOCCC1CC1)CC(=O)N1CCCC(CCO2)C1 (stereo partly drawn) [Compound 630, 3-(2-cyclopropylethoxy)-N-((9S,12S)-5^4-methyl-8,11,14-trioxo-9-phenethyl-4-oxa-7,10-diaza-1(3,1)-piperidina-5(1,3)-benzenacyclotetradecaphane-12-yl)propanamide] | < 0.1 µM | < 0.1 µM | < 0.1 µM | < 0.1 µM | < 0.1 µM | < 0.1 µM |

The remaining lines, values ahead:

| IC50 [1] | IC50 [2] | IC50 [3] | IC50 [4] | IC50 [5] | IC50 [6] | Compound |
| --- | --- | --- | --- | --- | --- | --- |
| < 0.1 µM | < 0.1 µM | < 0.1 µM | < 0.1 µM | < 0.1 µM | < 0.1 µM | Cc1ccc2cc1CNC(=O)[C@H](CCc1ccccc1)NC(=O)[C@@H](NC(=O)CCN1CCC3(COC3)C1)CC(=O)N1CCCC(CCO2)C1 (stereo partly drawn) [Compound 648, N-((9S,12S)-5^4-methyl-8,11,14-trioxo-9-phenethyl-4-oxa-7,10-diaza-1(3,1)-piperidina-5(1,3)-benzenacyclotetradecaphane-12-yl)-3-(2-oxa-6-azaspiro[3.4]octan-6-yl)propanamide] |
| < 0.1 µM | < 0.1 µM | < 0.1 µM | < 0.1 µM | < 0.1 µM | < 0.1 µM | Cc1ccc2cc1CNC(=O)[C@H](CCc1ccccc1)NC(=O)[C@@H](NC(=O)C1CC3(CCC3)C1)CC(=O)N1CCCC(CCO2)C1 (stereo partly drawn) [Compound 631, N-((9S,12S)-5^4-methyl-8,11,14-trioxo-9-phenethyl-4-oxa-7,10-diaza-1(3,1)-piperidina-5(1,3)-benzenacyclotetradecaphane-12-yl)spiro[3.3]heptane-2-carboxamide] |
| < 0.1 µM | < 0.1 µM | < 0.1 µM | < 0.1 µM | < 0.1 µM | < 0.1 µM | Cc1ccc2cc1CNC(=O)[C@H](CCc1ccccc1)NC(=O)[C@@H](NC(=O)N1CC(C)(O)C1)CC(=O)N1CCCC(CCO2)C1 (stereo partly drawn) [Compound 669, 3-hydroxy-3-methyl-N-((9S,12S)-5^4-methyl-8,11,14-trioxo-9-phenethyl-4-oxa-7,10-diaza-1(3,1)-piperidina-5(1,3)-benzenacyclotetradecaphane-12-yl)azetidine-1-carboxamide] |
| < 0.1 µM | < 0.1 µM | < 0.1 µM | < 0.1 µM | < 0.1 µM | < 0.1 µM | Cc1ccc2cc1CNC(=O)[C@H](CCc1ccccc1)NC(=O)[C@@H](NC(=O)CCN1CC3CCC1C3)CC(=O)N1CCCC(CCO2)C1 (stereo partly drawn) [Compound 673, 3-(2-azabicyclo[2.2.1]heptan-2-yl)-N-((9S,12S)-5^4-methyl-8,11,14-trioxo-9-phenethyl-4-oxa-7,10-diaza-1(3,1)-piperidina-5(1,3)-benzenacyclotetradecaphane-12-yl)propanamide] |
| < 0.1 µM | < 0.1 µM | 0.1 to 0.5 µM | 0.5 to 1 µM | 0.1 to 0.5 µM | 0.1 to 0.5 µM | Cc1ccc2cc1CNC(=O)[C@H](CCc1ccccc1)NC(=O)[C@@H](NC(=O)C(C)(C)CO)CCC(=O)NCCCCO2 [Compound 726, 3-hydroxy-2,2-dimethyl-N-((11S,14S)-1^4_ methyl-8,12,15-trioxo-1^4-phenethyl-2-oxa-7,13,16-triaza-1(1,3)-benzenacycloheptadecaphane-11-yl)propanamide] |
| < 0.1 µM | < 0.1 µM | < 0.1 µM | < 0.1 µM | < 0.1 µM | < 0.1 µM | Cc1ccc2cc1CNC(=O)[C@H](CCc1ccccc1)NC(=O)[C@@H](NC(=O)C13CC(O)(C1)C3)CC(=O)N1CCCC(CCO2)C1 (stereo partly drawn) [Compound 655, 3-hydroxy-N-((9S,12S)-5^4-methyl-8,11,14-trioxo-9-phenethyl-4-oxa-7,10-diaza-1(3,1)-piperidina-5(1,3)-benzenacyclotetradecaphane-12-yl)bicyclo[1.1.1]pentane-1-carboxamide] |
| < 0.1 µM | < 0.1 µM | < 0.1 µM | < 0.1 µM | < 0.1 µM | < 0.1 µM | Cc1ccc2cc1CNC(=O)[C@H](CCc1ccccc1)NC(=O)[C@@H](NC(=O)CCNCc1ccc(N3CCN(Cc4ccccc4)CC3)cc1)CC(=O)N1CCCC(CCO2)C1 (stereo partly drawn) [Compound 699, 3-((4-(4-benzylpiperazin-1-yl)benzyl)amino)-N-((9S,12S)-5^4-methyl-8,11,14-trioxo-9-phenethyl-4-oxa-7,10-diaza-1(3,1)-piperidina-5(1,3)-benzenacyclotetradecaphane-12-yl)propanamide] |
